Patent US9328122B2, “7-substituted Hanfangichin B derivative, and preparation method and use thereof” (HANGZHOU BENSHENG PHARMACEUTICAL CO., LTD., priority 2012, dated 2016)
Values after ≈ are worked out from the molar mass of the structure shown.

Tests used:
[1] = system: K562/ADR (K562adr, drug-resistant chronic myeloid leukemia) cells; assay: MTT cell growth inhibition, leukemia cells; type: cell-based; conditions: Homo sapiens, K562/ADR, 72 h, MTT; for IC50: read-out: IC50; for IC90: read-out: IC90
Procedure, shortened: (§1)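 Seed 6000 cells/well in RPMI-1640/10% FBS; next day add derivatives at varied concentrations and mix; incubate 72 h, 37° C., 5% CO2; measure viable cells by MTT.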

[2] = system: NB4 (acute promyelocytic leukemia) cells; assay: MTT cell growth inhibition, leukemia cells; type: cell-based; conditions: Homo sapiens, NB4, 72 h, MTT; for IC50: read-out: IC50; for IC90: read-out: IC90
Procedure, shortened: as §1

[3] = system: H9 (acute lymphoblastic leukemia) cells; assay: MTT cell growth inhibition, leukemia cells; type: cell-based, human; conditions: Homo sapiens, H9, 72 h, MTT; for IC50: read-out: IC50; for IC90: read-out: IC90
Procedure, shortened: as §1

[4] = system: Jurkat (acute lymphoblastic leukemia) cells; assay: MTT cell growth inhibition, leukemia cells; type: cell-based, human; conditions: Homo sapiens, Jurkat, 72 h, MTT; for IC50: read-out: IC50; for IC90: read-out: IC90
Procedure, shortened: as §1

[5] = system: Kasumi-1 (acute myeloid leukemia M2 type) cells; assay: MTT cell growth inhibition, leukemia cells; type: cell-based, human; conditions: Homo sapiens, Kasumi-1, 72 h, MTT; for IC50: read-out: IC50; for IC90: read-out: IC90
Procedure, shortened: as §1

[6] = system: CNE (nasopharyngeal carcinoma) cells; assay: MTT cell growth inhibition, solid tumor cells; type: cell-based, human; conditions: Homo sapiens, CNE, 72 h, MTT; for IC50: read-out: IC50; for IC90: read-out: IC90
Procedure, shortened: (§2)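 After 72 h at 37 °C/5% CO2 with compounds at a range of concentrations, viable cells were quantified by MTT; plating was 6000 cells per well with 24 h pre-culture.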

[7] = system: CaEs-17 (esophageal cancer) cells; assay: MTT cell growth inhibition, solid tumor cells; type: cell-based, human; conditions: Homo sapiens, CaEs17, CaEs-17, 72 h, MTT; for IC50: read-out: IC50; for IC90: read-out: IC90
Procedure, shortened: as §2

[8] = system: PANC-1 (pancreatic cancer) cells; assay: MTT cell growth inhibition, solid tumor cells; type: cell-based, human; conditions: Homo sapiens, PANC-1, 72 h, MTT; for IC50: read-out: IC50; for IC90: read-out: IC90
Procedure, shortened: as §2

[9] = system: PC-3 (prostate cancer) cells; assay: MTT cell growth inhibition, solid tumor cells; type: cell-based, human; conditions: Homo sapiens, PC-3, 72 h, MTT; for IC50: read-out: IC50; for IC90: read-out: IC90
Procedure, shortened: as §2

[10] = system: SK-OV-3 (ovarian cancer) cells; assay: MTT cell growth inhibition, solid tumor cells; type: cell-based, human; conditions: Homo sapiens, SK-OV-3, 72 h, MTT; for IC50: read-out: IC50; for IC90: read-out: IC90
Procedure, shortened: as §2

[11] = system: A549 (human lung cancer) cells; assay: MTT cell growth inhibition, solid tumor cells; type: cell-based; conditions: Homo sapiens, A549, 72 h, MTT; for IC50: read-out: IC50; for IC90: read-out: IC90
Procedure, shortened: as §2

[12] = system: Becap-37 (human breast cancer) cells; assay: MTT cell growth inhibition, solid tumor cells; type: cell-based; conditions: Homo sapiens, Becap-37, 72 h, MTT; for IC50: read-out: IC50; for IC90: read-out: IC90
Procedure, shortened: as §2

[13] = system: Hela (human cervical cancer) cells; assay: MTT cell growth inhibition, solid tumor cells; type: cell-based; conditions: Homo sapiens, Hela, 72 h, MTT; for IC50: read-out: IC50; for IC90: read-out: IC90
Procedure, shortened: as §2

[14] = system: Hep G2 (human liver cancer) cells; assay: MTT cell growth inhibition, solid tumor cells; type: cell-based; conditions: Homo sapiens, HepG2, Hep G2, 72 h, MTT; for IC50: read-out: IC50; for IC90: read-out: IC90
Procedure, shortened: as §2

[15] = system: Hep-2 (laryngeal carcinoma) cells; assay: MTT cell growth inhibition, solid tumor cells; type: cell-based; conditions: Homo sapiens, Hep-2, 72 h, MTT; for IC50: read-out: IC50; for IC90: read-out: IC90
Procedure, shortened: as §2

[16] = system: MG-63 (osteosarcoma) cells; assay: MTT cell growth inhibition, solid tumor cells; type: cell-based; conditions: Homo sapiens, MG-63, 72 h, MTT; for IC50: read-out: IC50; for IC90: read-out: IC90
Procedure, shortened: as §2

[17] = system: MGC-803 (human gastric cancer) cells; assay: MTT cell growth inhibition, solid tumor cells; type: cell-based; conditions: MGC-803, 72 h, MTT; for IC50: read-out: IC50; for IC90: read-out: IC90
Procedure, shortened: as §2

[18] = system: RKO (human colon adenocarcinoma) cells; assay: MTT cell growth inhibition, solid tumor cells; type: cell-based; conditions: Homo sapiens, RKO, 72 h, MTT; for IC50: read-out: IC50; for IC90: read-out: IC90
Procedure, shortened: as §2

[19] = system: U87-MG (malignant glioma) cells; assay: MTT cell growth inhibition, solid tumor cells; type: cell-based; conditions: Homo sapiens, U-87 MG, U87-MG, 72 h, MTT; for IC50: read-out: IC50; for IC90: read-out: IC90
Procedure, shortened: as §2

[20] = system: tumor; assay: Antitumor activity compared with fangchinoline, overall statement; type: cell-based; conditions: tumor type not specified

Row | SMILES | IC50 [1] [µg/mL] | IC90 [1] [µg/mL] | IC50 [2] [µg/mL] | IC90 [2] [µg/mL] | IC50 [3] [µg/mL] | IC90 [3] [µg/mL] | IC50 [4] [µg/mL] | IC90 [4] [µg/mL] | IC50 [5] [µg/mL] | IC90 [5] [µg/mL] | IC50 [6] [µg/mL] | IC90 [6] [µg/mL] | IC50 [7] [µg/mL] | IC90 [7] [µg/mL] | IC50 [8] [µg/mL] | IC90 [8] [µg/mL] | IC50 [9] [µg/mL] | IC90 [9] [µg/mL] | IC50 [10] [µg/mL] | IC90 [10] [µg/mL] | also measured
1 | COc1ccc2cc1Oc1ccc(cc1)C[C@H]1c3cc(c(OC)cc3CCN1C)Oc1c(OS(=O)(=O)c3ccccc3)c(OC)cc3c1[C@H](C2)N(C)CC3 [BS-FC-104] | 0.42 (≈ 0.561 µM) | 2.65 (≈ 3.54 µM) | 0.28 (≈ 0.374 µM) | 0.92 (≈ 1.23 µM) | 1 (≈ 1.34 µM) | 4.99 (≈ 6.66 µM) | 0.45 (≈ 0.601 µM) | 3.03 (≈ 4.05 µM) | 0.95 (≈ 1.27 µM) | 3.68 (≈ 4.91 µM) | 2.5 (≈ 3.34 µM) | 4.9 (≈ 6.54 µM) | 2 (≈ 2.67 µM) | 7.42 (≈ 9.91 µM) | 2.01 (≈ 2.68 µM) | 10.8 (≈ 14.4 µM) | 2.5 (≈ 3.34 µM) | 5.51 (≈ 7.36 µM) | 1.88 (≈ 2.51 µM) | 3.79 (≈ 5.06 µM) | IC50 [11]: 1.57 µg/mL (≈ 2.1 µM); IC90 [11]: 3.94 µg/mL (≈ 5.26 µM); IC50 [12]: 1.92 µg/mL (≈ 2.56 µM); IC90 [12]: 3.94 µg/mL (≈ 5.26 µM); IC50 [13]: 1 µg/mL (≈ 1.34 µM); IC90 [13]: 3.42 µg/mL (≈ 4.57 µM); IC50 [14]: 1.44 µg/mL (≈ 1.92 µM); IC90 [14]: 3.9 µg/mL (≈ 5.21 µM); IC50 [15]: 3.18 µg/mL (≈ 4.25 µM); IC90 [15]: 10.2 µg/mL (≈ 13.6 µM); IC50 [16]: 2.71 µg/mL (≈ 3.62 µM); IC90 [16]: 3.88 µg/mL (≈ 5.18 µM); IC50 [17]: 1.36 µg/mL (≈ 1.82 µM); IC90 [17]: 4.28 µg/mL (≈ 5.72 µM); IC50 [18]: 0.74 µg/mL (≈ 0.988 µM); IC90 [18]: 1.76 µg/mL (≈ 2.35 µM); IC50 [19]: 1.63 µg/mL (≈ 2.18 µM); IC90 [19]: 4.5 µg/mL (≈ 6.01 µM); antitumor activity compared with that of fangchinoline [20]: significantly superior
2 | C=C(C)COc1c(OC)cc2c3c1Oc1cc4c(cc1OC)CCN(C)[C@H]4Cc1ccc(cc1)Oc1cc(ccc1OC)C[C@@H]3N(C)CC2 [BS-FC-221] | 0.33 (≈ 0.498 µM) | 1.31 (≈ 1.98 µM) | 0.57 (≈ 0.86 µM) | 1.88 (≈ 2.84 µM) | 1.96 (≈ 2.96 µM) | 4 (≈ 6.03 µM) | 0.52 (≈ 0.785 µM) | 1.89 (≈ 2.85 µM) | 1 (≈ 1.51 µM) | 3.39 (≈ 5.11 µM) | 1.8 (≈ 2.72 µM) | 3.8 (≈ 5.73 µM) | 1.53 (≈ 2.31 µM) | 5.6 (≈ 8.45 µM) | 1.42 (≈ 2.14 µM) | 4.65 (≈ 7.02 µM) | 3 (≈ 4.53 µM) | 5.46 (≈ 8.24 µM) | 2.38 (≈ 3.59 µM) | 3.94 (≈ 5.94 µM) | IC50 [11]: 1.2 µg/mL (≈ 1.81 µM); IC90 [11]: 3.18 µg/mL (≈ 4.8 µM); IC50 [12]: 1.91 µg/mL (≈ 2.88 µM); IC90 [12]: 3.86 µg/mL (≈ 5.82 µM); IC50 [13]: 0.71 µg/mL (≈ 1.07 µM); IC90 [13]: 1.9 µg/mL (≈ 2.87 µM); IC50 [14]: 1.48 µg/mL (≈ 2.23 µM); IC90 [14]: 4.37 µg/mL (≈ 6.59 µM); IC50 [15]: 1.9 µg/mL (≈ 2.87 µM); IC90 [15]: 5.78 µg/mL (≈ 8.72 µM); IC50 [16]: 0.8 µg/mL (≈ 1.21 µM); IC90 [16]: 1.9 µg/mL (≈ 2.87 µM); IC50 [17]: 1.19 µg/mL (≈ 1.8 µM); IC90 [17]: 3.93 µg/mL (≈ 5.93 µM); IC50 [18]: 1.37 µg/mL (≈ 2.07 µM); IC90 [18]: 2.76 µg/mL (≈ 4.16 µM); IC50 [19]: 1.13 µg/mL (≈ 1.7 µM); IC90 [19]: 4.5 µg/mL (≈ 6.79 µM); antitumor activity compared with that of fangchinoline [20]: significantly superior
3 | COc1ccc2cc1Oc1ccc(cc1)C[C@H]1c3cc(c(OC)cc3CCN1C)Oc1c(OC(=O)c3c(F)cccc3Cl)c(OC)cc3c1[C@H](C2)N(C)CC3 [BS-FC-315] | 0.26 (≈ 0.34 µM) | 2.14 (≈ 2.8 µM) | 0.33 (≈ 0.431 µM) | 1.32 (≈ 1.72 µM) | 2 (≈ 2.61 µM) | 3.77 (≈ 4.93 µM) | 0.59 (≈ 0.771 µM) | 1.24 (≈ 1.62 µM) | 0.85 (≈ 1.11 µM) | 3.04 (≈ 3.97 µM) | 3.3 (≈ 4.31 µM) | 6.6 (≈ 8.62 µM) | 1.84 (≈ 2.4 µM) | 3.86 (≈ 5.04 µM) | 1.61 (≈ 2.1 µM) | 5.52 (≈ 7.21 µM) | 2.95 (≈ 3.85 µM) | 5.02 (≈ 6.56 µM) | 2.99 (≈ 3.91 µM) | 6.81 (≈ 8.9 µM) | IC50 [11]: 1.85 µg/mL (≈ 2.42 µM); IC90 [11]: 3.48 µg/mL (≈ 4.55 µM); IC50 [12]: 2.1 µg/mL (≈ 2.74 µM); IC90 [12]: 3.79 µg/mL (≈ 4.95 µM); IC50 [13]: 1.5 µg/mL (≈ 1.96 µM); IC90 [13]: 3.35 µg/mL (≈ 4.38 µM); IC50 [14]: 1.39 µg/mL (≈ 1.82 µM); IC90 [14]: 3.74 µg/mL (≈ 4.89 µM); IC50 [15]: 3.66 µg/mL (≈ 4.78 µM); IC90 [15]: 6.4 µg/mL (≈ 8.36 µM); IC50 [16]: 2.4 µg/mL (≈ 3.14 µM); IC90 [16]: 3.9 µg/mL (≈ 5.1 µM); IC50 [17]: 1.21 µg/mL (≈ 1.58 µM); IC90 [17]: 3.02 µg/mL (≈ 3.95 µM); IC50 [18]: 1.15 µg/mL (≈ 1.5 µM); IC90 [18]: 2.23 µg/mL (≈ 2.91 µM); IC50 [19]: 1.34 µg/mL (≈ 1.75 µM); IC90 [19]: 3.24 µg/mL (≈ 4.23 µM); antitumor activity compared with that of fangchinoline [20]: significantly superior
